Here are results for two compounds from patent US9056108B2, “Method of treating atrial fibrillation” (Gilead Sciences, Inc., priority 2009, dated 2015).

Series [1] concerns female rabbit isolated heart. In words: Monophasic action potential duration (MAPD90) in female rabbit isolated heart. As to conditions: ranolazine 0.1-100 μM. How it is done: Each rabbit was sedated using intramuscular injections of 6 mg/kg xylazine and 40 mg/kg ketamine and then anesthetized using a “cocktail” of ketamine (15 mg/kg)+xylazine (4 mg/kg) in 1.5 ml saline. The ketamine/xylazine cocktail was administered as an i.v. bolus via the marginal ear vein. After anesthesia was confirmed, the thorax was opened and the heart was quickly excised. The heart was placed in a modified Krebs-Henseleit (K-H) physiological saline solution at room temperature. The K-H solution contained (in mmol/L): NaCl 118, KCl 2.8, KH2PO4 1.2, CaCl2 2.5, MgSO4 0.5, pyruvate 2.0, glucose 5.5, Na2EDTA 0.57 and NaHCO3 25. […] CPP was measured (with a Biopac MP 150 pressure transducer, Goleta, Calif.) from a side port of the aortic catheter. […]
Monophasic action potential (MAP) and ECG electrodes from Harvard Apparatus Inc. (Holliston, Mass.) were used to record heart rate (in beats per minute, or bpm), left ventricular MAPs and a bipolar ECG MAP electrodes were pressure contact Ag—AgCl cells attached to a circular holder with springs to keep the electrodes in contact with the LV epicardial surface. […] To ensure that each response to drug had achieved a steady state before a drug concentration was changed, the MAP duration (from onset of depolarization to 100% repolarization) was measured using an on-screen caliper throughout each drug infusion period. […]

The target of another series is T1, hNav1.5 (Homo sapiens, UniProt Q14524).
T1 construct: expressed in transfected cells; host or cells: HEK293
T1 sequence (Q14524 whole entry): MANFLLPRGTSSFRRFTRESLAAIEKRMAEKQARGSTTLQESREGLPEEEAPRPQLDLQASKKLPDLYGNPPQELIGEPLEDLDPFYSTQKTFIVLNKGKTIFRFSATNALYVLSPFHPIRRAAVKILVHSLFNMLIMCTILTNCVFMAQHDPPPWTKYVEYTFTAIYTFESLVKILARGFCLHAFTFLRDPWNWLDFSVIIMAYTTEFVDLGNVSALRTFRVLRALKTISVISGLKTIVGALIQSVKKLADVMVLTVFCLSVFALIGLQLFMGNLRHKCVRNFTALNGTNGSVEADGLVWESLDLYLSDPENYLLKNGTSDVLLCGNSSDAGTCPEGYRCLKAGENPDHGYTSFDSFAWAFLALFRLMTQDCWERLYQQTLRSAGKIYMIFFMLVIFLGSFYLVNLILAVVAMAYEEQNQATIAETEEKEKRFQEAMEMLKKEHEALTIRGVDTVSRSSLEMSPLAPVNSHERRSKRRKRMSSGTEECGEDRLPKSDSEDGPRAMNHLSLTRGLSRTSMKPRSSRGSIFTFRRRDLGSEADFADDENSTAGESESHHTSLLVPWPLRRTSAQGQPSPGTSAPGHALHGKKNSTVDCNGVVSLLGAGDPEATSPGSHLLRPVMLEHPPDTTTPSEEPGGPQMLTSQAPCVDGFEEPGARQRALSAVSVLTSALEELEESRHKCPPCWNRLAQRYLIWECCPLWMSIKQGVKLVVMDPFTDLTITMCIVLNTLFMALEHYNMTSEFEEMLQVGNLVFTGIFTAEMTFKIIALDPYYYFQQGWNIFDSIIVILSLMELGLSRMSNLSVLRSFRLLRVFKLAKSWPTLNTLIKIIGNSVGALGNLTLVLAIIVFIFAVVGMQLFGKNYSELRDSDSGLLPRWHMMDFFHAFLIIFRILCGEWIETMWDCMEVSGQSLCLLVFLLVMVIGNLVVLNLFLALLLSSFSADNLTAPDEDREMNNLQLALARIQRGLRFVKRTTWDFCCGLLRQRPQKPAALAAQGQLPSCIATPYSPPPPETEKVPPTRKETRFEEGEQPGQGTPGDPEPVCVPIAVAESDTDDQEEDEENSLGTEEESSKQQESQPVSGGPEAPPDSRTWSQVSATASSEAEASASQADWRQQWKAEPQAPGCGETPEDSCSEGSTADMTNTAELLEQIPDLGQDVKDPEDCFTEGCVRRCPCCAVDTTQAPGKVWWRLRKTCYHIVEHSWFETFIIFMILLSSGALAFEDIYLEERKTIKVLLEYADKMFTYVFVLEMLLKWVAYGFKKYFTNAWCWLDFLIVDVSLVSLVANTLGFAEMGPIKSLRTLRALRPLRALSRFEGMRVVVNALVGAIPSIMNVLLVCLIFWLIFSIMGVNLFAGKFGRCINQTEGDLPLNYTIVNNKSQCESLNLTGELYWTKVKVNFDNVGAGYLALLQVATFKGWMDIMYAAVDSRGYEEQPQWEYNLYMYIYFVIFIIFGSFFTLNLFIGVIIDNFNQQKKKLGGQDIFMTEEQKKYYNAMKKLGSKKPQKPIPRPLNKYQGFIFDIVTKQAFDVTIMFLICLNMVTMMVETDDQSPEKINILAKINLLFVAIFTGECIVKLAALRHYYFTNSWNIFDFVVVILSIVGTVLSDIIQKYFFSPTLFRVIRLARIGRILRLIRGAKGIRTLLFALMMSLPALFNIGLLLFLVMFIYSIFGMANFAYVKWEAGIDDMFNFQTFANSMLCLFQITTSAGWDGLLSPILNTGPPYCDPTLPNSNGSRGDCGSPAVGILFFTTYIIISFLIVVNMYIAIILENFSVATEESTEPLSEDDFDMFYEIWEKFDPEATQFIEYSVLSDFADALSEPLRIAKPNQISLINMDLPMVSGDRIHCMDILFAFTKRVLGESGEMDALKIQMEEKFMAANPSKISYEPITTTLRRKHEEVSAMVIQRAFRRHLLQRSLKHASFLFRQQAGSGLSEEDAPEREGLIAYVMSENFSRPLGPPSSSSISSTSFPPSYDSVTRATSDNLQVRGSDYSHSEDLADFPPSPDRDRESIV
In words: Tefluthrin-induced late sodium current in HEK293 cells expressing hNav1.5. Type of series: cell-based. As to conditions: HEK293 cells expressing hNav1.5, tefluthrin 10 μM; read-out: Concentration causing a half-maximal inhibition of late Na+. The protocol:
The effect of dronedarone on late INa has not been reported. Therefore we determined the effect of dronedarone on late INa induced by incubation of HEK293 cells expressing the human heart sodium channel gene Nav1.5 with the late INa enhancer tefluthrin. […] Thus, the combination of dronedarone and ranolazine may be anticipated to reduce late INa. A reduction of late INa in the heart has been associated with a reduction of atrial arrhythmias in patients and in animal models of atrial fibrillation.

The subject of series [2] is female rabbit isolated heart treated with E-4031. In words: Torsades de pointes in rabbit isolated heart treated with E-4031. As to conditions: E-4031 60 nM; dronedarone 10 μM. How it is done: Each rabbit was sedated using intramuscular injections of 6 mg/kg xylazine and 40 mg/kg ketamine and then anesthetized using a “cocktail” of ketamine (15 mg/kg)+xylazine (4 mg/kg) in 1.5 ml saline. The ketamine/xylazine cocktail was administered as an i.v. bolus via the marginal ear vein. After anesthesia was confirmed, the thorax was opened and the heart was quickly excised. The heart was placed in a modified Krebs-Henseleit (K-H) physiological saline solution at room temperature. […] CPP was measured (with a Biopac MP 150 pressure transducer, Goleta, Calif.) from a side port of the aortic catheter. To facilitate exit of fluid from the chamber of the left ventricle (LV), the leaflets of the mitral valve were trimmed with fine spring-handled scissors. The right atrial wall was partially removed.
Complete AV block was induced by thermo-ablation of the AV nodal area. […] A bipolar Teflon-coated electrode was placed on the right ventricular septum to pace the heart. Electrical stimuli 3 ms in width and 3-fold threshold amplitude were delivered to the pacing electrode at a frequency of 1 Hz throughout the experiments using a Grass S48 stimulator (W. Warwick, R.I.).
After initiation of ventricular pacing, a 30-40 min equilibration delay was allowed for heart rate (and CPP) to achieve a steady state, an essential experimental condition for recording a good quality monophasic action potential (MAP) recording.
Monophasic action potential (MAP) and ECG electrodes from Harvard Apparatus Inc. (Holliston, Mass.) were used to record heart rate (in beats per minute, or bpm), left ventricular MAPs and a bipolar ECG MAP electrodes were pressure contact Ag—AgCl cells attached to a circular holder with springs to keep the electrodes in contact with the LV epicardial surface. Two MAP electrodes were placed on the epicardial ventricular free wall below the level of the atrial-ventricular valves, one at the base to record a basal MAP and one at the apex to record an apical MAP. […] Signals were saved on a computer hard disk for subsequent analysis. Bipolar electrocardiograms (ECG) were generated using an isolated-heart ECG apparatus (Harvard Apparatus, Holliston, Mass.) attached to Biopac amplifier system.

The conditions of series [3]: in vivo; cited from earlier work.

As to `COc1ccccc1OCC(O)CN1CCN(CC(=O)Nc2c(C)cccc2C)CC1` (racemic) [Ranolazine, (±)-N-(2,6-dimethylphenyl)-4-[2-hydroxy-3-(2-methoxyphenoxy)-propyl]-1-piperazineacetamide], the “Increase in MAPD90” value in series [1] is given as 22±6%. In addition, the MAPD90 in series [1] (from 177±10) worked out at 215 ± 6 ms.

Consider `CCCCc1oc2ccc(NS(C)(=O)=O)cc2c1C(=O)c1ccc(OCCCN(CCCC)CCCC)cc1` [Dronedarone, N-(2-Butyl-3-(p-(3-(dibutylamino)propoxy)benzoyl)-5-benzofuranyl)methanesulfonamide], for which the IC50 at hNav1.5 was determined as 4 µM. In addition, the “Occurrences of torsades de pointes (TdP) (hearts)” value in series [2] is on record as 1/6. The Half-life of elimination entry in series [3] is recorded as “about 24 hours”.
